Test results as given in patent US11584709B2, “Multitarget drug for treating diseases in mammals” (“PHARMENTERPRISES EURASIA” LIMITED LIABILITY COMPANY, priority 2017, dated 2023).

Experiments:
[1] = target: T1, melanocortin receptor MC4R (Homo sapiens, UniProt P32245); assay: Activity of melanocortin receptors MC4R, CHO cells; type: cell-based; details: antagonist, NDP-alpha-MSH agonist (30 nM)
T1 construct: expressed in transfected cells; host or cells: CHO cells
Procedure: (§1) Compound 1 was dissolved in DMSO to a concentration of 100 mM; then a stock solution was serially diluted with DMSO. The maximum starting concentration of the substance is 100 μM. The effect was determined at 5 concentrations of the tested compounds, each concentration was studied twice. CHO cells expressing a melanocortin receptor MC4R were used in the experiment, these cells, after preincubation with a NDP-alpha-MSH agonist (30 nM), were incubated with the test compound. The activity of receptors was determined according to the intracellular calcium concentration by the homogeneous time resolved fluorescence spectroscopy.

model of Crohn's disease = assay: Mouse model of Crohn's disease (TNBS); type: in vivo, male balb/c mice
Procedure: The study was performed on male balb/c mice. Animals, which starved for 24 hours, were injected with 150 μl/mouse of TNBS solution in 50% ethanol into the rectal hole of the mouse to the depth of 4 cm using a 3.5 F catheter. Next, the mice were turned upside down and held for 60 seconds. 150 μl of the 50% ethanol solution was injected into the healthy control (intact animals). The study lasted 7 days. The development of pathology was assessed by the death of animals.

[2] = Stability in blood plasma, monkey; type: in vitro ADME; details: 1 μM, 37° C.
Procedure: (§2) Compound 1 at a concentration of 1 μM was incubated for 24 hours in the blood plasma of human and various animal species (rats, mice, guinea pigs, rabbits, horses, dogs, bull, pygmy hogs) at 37° C. Aliquots were taken at time points of 0, 0.25, 1, 2, 4, 8 and 24 hours. In the case of blood plasma of rabbits and monkeys, Compound 1 was incubated for 4 hours, and aliquots were taken at time points 0, 0.25, 1, 4. After the protein precipitation with acetonitrile, samples were analyzed by HPLC-MS/MS to determine the concentration of Compound 1. Verapamil was used as a stable control.

[3] = Stability in blood plasma, human; type: in vitro ADME; details: 1 μM, 37° C.
Procedure: as §2

indomethacin colitis = assay: Model of colitis induced by indomethacin; type: in vivo, male Wistar rats; details: 100 mg/kg; day 4; M ± m, n = 10
Procedure: The study was performed on male Wistar rats, which were subcutaneously injected with an indomethacin solution in a dose of 9 mg/kg for two days running to induce colitis. The injection solution was prepared as follows: first, indomethacin was dissolved in 100% ethanol, then it was diluted in 5% NaHCO3 solution. On the 4th day after euthanasia, the stomach and intestine were removed from the animals in the CO2 chamber, then the caecum was excised, 10 cm from the ileum and large intestine was cut off, and 5 cm—from the caecum, to assess gross lesions (J Ethnopharmacol. 2004 February; 90(2-3): 195-204).

[4] = Stability in blood plasma, rat; type: in vitro ADME; details: for Content, % from the initial, Mean (n = 2): rat blood plasma, 1 μM, 37° C.
Procedure: as §2

[5] = Stability in blood plasma, pygmy hog; type: in vitro ADME; details: 1 μM, 37° C.
Procedure: as §2

[6] = target: T2, prokineticin receptor type 2 (PK2) (Homo sapiens, UniProt Q8NFJ6); assay: Activity of prokineticin receptors type 2 (PK2), intracellular calcium, HEK-293 cells; type: cell-based; details: antagonist, PK2 agonist (2 nM)
T2 construct: expressed in transfected cells; host or cells: HEK-293 cells
T2 sequence (Q8NFJ6 whole entry): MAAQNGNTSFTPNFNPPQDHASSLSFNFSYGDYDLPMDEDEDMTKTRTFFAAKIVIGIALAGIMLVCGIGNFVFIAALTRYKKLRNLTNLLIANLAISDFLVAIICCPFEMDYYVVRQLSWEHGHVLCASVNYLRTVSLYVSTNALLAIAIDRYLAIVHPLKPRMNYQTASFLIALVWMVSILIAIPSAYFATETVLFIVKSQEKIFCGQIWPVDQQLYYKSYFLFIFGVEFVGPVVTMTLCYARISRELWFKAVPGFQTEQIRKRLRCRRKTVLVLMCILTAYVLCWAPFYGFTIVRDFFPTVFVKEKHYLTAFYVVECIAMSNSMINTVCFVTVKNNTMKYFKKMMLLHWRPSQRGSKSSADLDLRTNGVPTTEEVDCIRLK
Procedure: as §1, with “HEK-293” for “CHO”, “prokinetycin receptors PK2” for “a melanocortin receptor MC4R”, “PK2” for “NDP-alpha-MSH”, “(2” for “(30”, “the” for “the homogeneous time resolved”, “spectroscopy (Mol Pharmacol. 2005 June; 67(6):2070-6).” for “spectroscopy.”

[7] = Chronic (90-day) oral administration, body weight of rabbits; type: in vivo, Chinchilla rabbits; details: for period in which the lag in body weight gain was observed: female rabbits, daily intragastric
Procedure: The effect of 90-day, oral administration of Compound 1 in doses of 1.5 mg/kg, 7.5 mg/kg and 15 mg/kg on the body weight of male and female Chinchilla rabbits was studied.

[8] = Stability in blood plasma, dog; type: in vitro ADME; details: 1 μM, 37° C.
Procedure: as §2

[9] = target: T3, cannabinoid receptor type 1 (CB1R) (Homo sapiens, UniProt P21554); assay: Activity of cannabinoid receptor type 1, CHO cells expressing CB1R; type: cell-based; details: agonist, control CP55940 (30 nM)
T3 construct: expressed in transfected cells; host or cells: CHO cells
T3 sequence (P21554 whole entry): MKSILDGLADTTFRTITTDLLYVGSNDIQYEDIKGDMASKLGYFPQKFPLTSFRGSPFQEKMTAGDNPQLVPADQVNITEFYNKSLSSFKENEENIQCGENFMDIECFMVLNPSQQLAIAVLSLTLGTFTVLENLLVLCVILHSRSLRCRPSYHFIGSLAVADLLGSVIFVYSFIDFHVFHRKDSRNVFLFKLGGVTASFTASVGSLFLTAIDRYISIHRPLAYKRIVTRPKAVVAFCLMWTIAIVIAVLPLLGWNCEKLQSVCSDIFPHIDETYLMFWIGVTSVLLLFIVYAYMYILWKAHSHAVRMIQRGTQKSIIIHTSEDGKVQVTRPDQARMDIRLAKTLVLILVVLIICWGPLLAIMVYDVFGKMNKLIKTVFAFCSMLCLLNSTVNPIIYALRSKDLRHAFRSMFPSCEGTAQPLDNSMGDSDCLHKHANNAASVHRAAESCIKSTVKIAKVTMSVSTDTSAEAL
Procedure: Compound 1 was dissolved in DMSO to a concentration of 100 mM; then the stock solution was serially diluted with DMSO. The maximum starting concentration of the substance is 100 μM. The effect was determined at 5 concentrations of the tested compounds, each concentration was studied twice. CHO cells expressing CB1R were used in the experiment, these cells were incubated with the test compound. CP55940 (30 nM) compound was used as the control. The activity of receptors was determined by the intracellular calcium concentration by the homogeneous time resolved fluorescence spectroscopy (Mol Pharmacol. 1995 September; 48(3):443-50).

[10] = 90-day oral, 1.5, 7.5 and 15 mg/kg, male and female rabbits

T1 sequence (P32245 whole entry): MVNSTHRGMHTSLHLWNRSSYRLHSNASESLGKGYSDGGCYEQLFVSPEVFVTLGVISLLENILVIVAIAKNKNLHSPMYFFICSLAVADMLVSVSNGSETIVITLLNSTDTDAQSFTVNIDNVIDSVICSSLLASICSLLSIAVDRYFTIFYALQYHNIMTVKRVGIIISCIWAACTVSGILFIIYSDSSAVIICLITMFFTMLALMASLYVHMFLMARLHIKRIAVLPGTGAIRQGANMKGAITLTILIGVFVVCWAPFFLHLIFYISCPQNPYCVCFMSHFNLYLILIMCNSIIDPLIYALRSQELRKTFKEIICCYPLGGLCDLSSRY

## O=C(Cc1ccc(O)cc1)N[C@@H](Cc1ccccc1)C(=O)OCc1ccccc1 [Compound 1, benzyl (2S)-2-[2-(4-hydroxyphenyl)acetamido]-3-phenylpropanoate]
[1]
  IC50: 7.6 µM
Model of Crohn's disease; 50 mg/kg, 1 time per day, TNBS, 7 days, 10 animals
  The portion of dead animals: 30%
Model of Crohn's disease; summary of Table 4
  decrease of the death of animals: more than 2 times
[2]; 0 hour
  Content, % from the initial, Mean (n = 2): 100%
[2]; 0.25 hour
  Content, % from the initial, Mean (n = 2): 38.3%
[2]; 1 hour
  Content, % from the initial, Mean (n = 2): 1.69%
[2]; 4 hour
  Content, % from the initial, Mean (n = 2): 0.00%
[3]; 0 hour
  Content, % from the initial, Mean (n = 2): 100%
[3]; 0.25 hour
  Content, % from the initial, Mean (n = 2): 85.4%
[3]; 1 hour
  Content, % from the initial, Mean (n = 2): 70.3%
[3]; 2 hour
  Content, % from the initial, Mean (n = 2): 50.1%
[3]; 4 hour
  Content, % from the initial, Mean (n = 2): 32.1%
[3]; 8 hour
  Content, % from the initial, Mean (n = 2): 16.4%
[3]; 24 hour
  Content, % from the initial, Mean (n = 2): 0.00%
Indomethacin colitis
  Macroscopic assessment of the lesion, Caecum: 0.4 ± 0.2 points
  Macroscopic assessment of the lesion, Ileum: 0.6 ± 0.3& points
  Macroscopic assessment of the lesion, Large intestine: 0.2 ± 0.1& points
  Macroscopic assessment of the lesion, Overall assessment: 1.2 ± 0.4*& points
[4]; blood plasma of rats, after 15 minutes
  hydrolysis in the blood plasma (in words): almost completely hydrolyzed
[4]; 0 hour
  Content, % from the initial, Mean (n = 2): 100%
[4]; 0.25 hour
  Content, % from the initial, Mean (n = 2): 0.00%
[4]; 1 hour
  Content, % from the initial, Mean (n = 2): 0.00%
[4]; 2 hour
  Content, % from the initial, Mean (n = 2): 0.00%
[4]; 4 hour
  Content, % from the initial, Mean (n = 2): 0.00%
[4]; 8 hour
  Content, % from the initial, Mean (n = 2): 0.00%
[4]; 24 hour
  Content, % from the initial, Mean (n = 2): 0.00%
[5]; 0 hour
  Content, % from the initial, Mean (n = 2): 100%
[5]; 0.25 hour
  Content, % from the initial, Mean (n = 2): 92.6%
[5]; 1 hour
  Content, % from the initial, Mean (n = 2): 61.8%
[5]; 2 hour
  Content, % from the initial, Mean (n = 2): 35.9%
[5]; 4 hour (so in the source)
  Content, % from the initial, Mean (n = 2): 2.68%
[5]; time cell empty (last line)
  Content, % from the initial, Mean (n = 2): 0.15%
[5]; time cell empty (line after 2 hour)
  Content, % from the initial, Mean (n = 2): 15.9%
[6]
  IC50: 5.4 µM
[7]; [10]
  general condition, appearance, and mobility: satisfactory and did not differ in the experimental and control groups
  weight gain compared with parallel controls: somewhat lagging behind in weight gain
[7]; accompanying the decrease in body weight gain
  feed and water intake: decrease in feed and water intake
[7]; 7.5 mg/kg
  period in which the lag in body weight gain was observed: practically, during the entire period of the drug administration
[7]; 15 mg/kg
  period in which the lag in body weight gain was observed: practically, during the entire period of the drug administration
[7]; recovery period, control versus experimental animals
  dynamics of the body weight in the recovery period: no differences in the dynamics of the body weight
[8]; 0 hour
  Content, % from the initial, Mean (n = 2): 100%
[8]; 0.25 hour
  Content, % from the initial, Mean (n = 2): 110%
[8]; 1 hour
  Content, % from the initial, Mean (n = 2): 79.1%
[8]; 2 hour
  Content, % from the initial, Mean (n = 2): 80.6%
[8]; 4 hour
  Content, % from the initial, Mean (n = 2): 67.2%
[8]; 8 hour
  Content, % from the initial, Mean (n = 2): 54.1%
[8]; 24 hour
  Content, % from the initial, Mean (n = 2): 33.8%
[9]
  IC50: 3.3 µM
